The text below walks through data of patent US20260250290A1 (BRISTOL-MYERS SQUIBB COMPANY, priority 2023, published 2026).

Each structure is given as a SMILES string. Counter-ions that a name gives are not always drawn.

In this assay the target is T1, full length SGK1 (Homo sapiens, UniProt O00141).
T1 construct: 125 μM full length SGK1 (Life Technologies Part #PR7358A); purchased Life Technologies PR7358A
T1 sequence (O00141 1-431): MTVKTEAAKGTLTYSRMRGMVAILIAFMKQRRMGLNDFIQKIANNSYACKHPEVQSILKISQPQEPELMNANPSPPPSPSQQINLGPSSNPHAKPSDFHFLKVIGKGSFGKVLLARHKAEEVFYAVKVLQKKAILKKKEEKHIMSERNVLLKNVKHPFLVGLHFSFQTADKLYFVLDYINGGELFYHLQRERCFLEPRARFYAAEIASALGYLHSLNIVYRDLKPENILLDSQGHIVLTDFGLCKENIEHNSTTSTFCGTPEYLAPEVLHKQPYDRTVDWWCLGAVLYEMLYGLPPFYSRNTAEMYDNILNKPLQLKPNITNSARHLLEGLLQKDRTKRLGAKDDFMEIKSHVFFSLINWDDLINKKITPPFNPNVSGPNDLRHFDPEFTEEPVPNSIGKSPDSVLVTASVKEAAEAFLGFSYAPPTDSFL
Description: SGK1 inhibition Assay A (Caliper LabChip electrophoretic separation of fluorescent peptide substrate and phosphorylated product). The assay is classed as biochemical. Conditions: Assay A; 20 μM ATP, 40 min incubation; read-out: SGK1 IC50.

For `CC(=O)N1CC=C(c2cc(N3CCC[C@@H](NC(=O)c4sc(Cl)cc4OCCN(C)C)C3)c3c(N)ncnn23)CC1` [Example 180, (R)—N-(1-(7-(1-acetyl-1,2,3,6-tetrahydropyridin-4-yl)-4-aminopyrrolo[2,1-f][1,2,4]triazin-5-yl)piperidin-3-yl)-5-chloro-3-(2-(dimethylamino)ethoxy)thiophene-2-carboxamide 2 TFA], the IC50 was 0.047 µM.
As to `CN(C)CCOc1cc(Cl)sc1C(=O)N[C@@H]1CCCN(c2cc(C3=CCN(C(=O)CC(F)(F)F)CC3)n3ncnc(N)c23)C1` [Example 181, (R)-N-(1-(4-amino-7-(1-(3,3,3-trifluoropropanoyl)-1,2,3,6-tetrahydropyridin-4-yl)pyrrolo[2,1-f][1,2,4]triazin-5-yl)piperidin-3-yl)-5-chloro-3-(2-(dimethylamino)ethoxy) thiophene-2-carboxamide, 2 TFA], the IC50 was determined as 0.017 µM.
Turning to `CN(C)CCOc1cc(Cl)sc1C(=O)N[C@@H]1CCCN(c2cc(C3=CCN(C(=O)C4CC4)CC3)n3ncnc(N)c23)C1` [Example 182, (R)-N-(1-(4-amino-7-(1-(cyclopropanecarbonyl)-1,2,3,6-tetrahydropyridin-4-yl)pyrrolo[2,1-f][1,2,4]triazin-5-yl)piperidin-3-yl)-5-chloro-3-(2-(dimethylamino)ethoxy) thiophene-2-carboxamide, 2 TFA], the IC50 is 0.035 µM.
For `CN(C)CCOc1cc(Cl)sc1C(=O)N[C@@H]1CCCN(c2cc(C3=CCN(C(=O)C4CCC4)CC3)n3ncnc(N)c23)C1` [Example 183, (R)-N-(1-(4-amino-7-(1-(cyclobutanecarbonyl)-1,2,3,6-tetrahydropyridin-4-yl)pyrrolo[2,1-f][1,2,4]triazin-5-yl)piperidin-3-yl)-5-chloro-3-(2-(dimethylamino)ethoxy) thiophene-2-carboxamide, 2 TFA] the value was 0.042 µM.
Take `CN(C)CCOc1cc(Cl)sc1C(=O)N[C@@H]1CCCN(c2cc(C3=CCN(C(=O)C4CC(F)(F)C4)CC3)n3ncnc(N)c23)C1` [Example 184, (R)-N-(1-(4-amino-7-(1-(3,3-difluorocyclobutane-1-carbonyl)-1,2,3,6-tetrahydropyridin-4-yl)pyrrolo[2,1-f][1,2,4]triazin-5-yl)piperidin-3-yl)-5-chloro-3-(2-(dimethylamino)ethoxy) thiophene-2-carboxamide, 2 TFA]: the half-inhibitory concentration (IC50) is 0.036 µM.
Turning to `COC(=O)N1CC=C(c2cc(N3CCC[C@@H](NC(=O)c4sc(Cl)cc4OCCN4CCOCC4)C3)c3c(N)ncnn23)C1` [Example 185, methyl (R)-3-(4-amino-5-(3-(5-chloro-3-(2-morpholinoethoxy)thiophene-2-carboxamido)piperidin-1-yl)pyrrolo[2,1-f][1,2,4]triazin-7-yl)-2,5-dihydro-1H-pyrrole-1-carboxylate, 2 TFA], the IC50 stood at 0.043 µM.
For `CN(C)CCOc1cc(Cl)sc1C(=O)N[C@@H]1CCCN(c2cc(-c3ccn4nnnc4c3)n3ncnc(N)c23)C1` [Example 186, (R)—N-(1-(4-amino-7-(tetrazolo[1,5-a]pyridin-7-yl)pyrrolo[2,1-f][1,2,4]triazin-5-yl)piperidin-3-yl)-5-chloro-3-(2-(dimethylamino)ethoxy)thiophene-2-carboxamide] the value was 0.003 µM; for `CN(C)CCOc1cc(Cl)sc1C(=O)N[C@@H]1CCCN(c2cc(-c3ccc(-n4cnnn4)cc3)n3ncnc(N)c23)C1` [Example 187, (R)-N-(1-(7-(4-(1H-tetrazol-1-yl)phenyl)-4-aminopyrrolo[2,1-f][1,2,4]triazin-5-yl)piperidin-3-yl)-5-chloro-3-(2-(dimethylamino)ethoxy) thiophene-2-carboxamide, 2 TFA], 0.006 µM.
For `CN(C)CCOc1cc(Cl)sc1C(=O)N[C@@H]1CCCN(c2cc(-c3ccc(-n4cnnn4)c(F)c3)n3ncnc(N)c23)C1` [Example 188] the value was 0.004 µM; for `CN(C)CCOc1cc(Cl)sc1C(=O)N[C@@H]1CCCN(c2cc(-c3ccc(C(F)F)nc3)n3ncnc(N)c23)C1` [Example 189, (R)-N-(1-(4-amino-7-(6-(difluoromethyl)pyridin-3-yl)pyrrolo[2,1-f][1,2,4]triazin-5-yl)piperidin-3-yl)-5-chloro-3-(2-(dimethylamino)ethoxy) thiophene-2-carboxamide], 0.002 µM.
For `CN(C)CCOc1cc(Cl)sc1C(=O)N[C@@H]1CCCN(c2cc(-c3ccc(-n4cncn4)nc3)n3ncnc(N)c23)C1` [Example 190, (R)-N-(1-(7-(6-(1H-1,2,4-triazol-1-yl)pyridin-3-yl)-4-aminopyrrolo[2,1-f][1,2,4]triazin-5-yl)piperidin-3-yl)-5-chloro-3-(2-(dimethylamino)ethoxy) thiopbene-2-carboxamide] the value was 0.019 µM; for `CN(C)CCOc1cc(Cl)sc1C(=O)N[C@@H]1CCCN(c2cc(-c3ccc(-n4cnc(C#N)n4)nc3)n3ncnc(N)c23)C1` [Example 191, (R)-N-(1-(4-amino-7-(6-(3-cyano-1H-1,2,4-triazol-1-yl)pyridin-3-yl)pyrrolo[2,1-f][1,2,4]triazin-5-yl)piperidin-3-yl)-5-chloro-3-(2-(dimethylamino)ethoxy) thiophene-2-carboxamide], 0.006 µM; for `CN(C)CCOc1cc(Cl)sc1C(=O)N[C@@H]1CCCN(c2cc(-c3ccc4nnnn4c3)n3ncnc(N)c23)C1` [Example 192, (R)-N-(1-(4-amino-7-(tetrazolo[1,5-a]pyridin-6-yl)pyrrolo[2,1-f][1,2,4]triazin-5-yl)piperidin-3-yl)-5-chloro-3-(2-(dimethylamino)ethoxy) thiophene-2-carboxamide], 0.01 µM.
With `CN(C)CCOc1cc(Cl)sc1C(=O)N[C@@H]1CCCN(c2cc(-c3ccc4ncnn4c3)n3ncnc(N)c23)C1` [Example 193, (R)-N-(1-(7-([1,2,4]triazolo{1,5-a]pyridin-6-yl)-4-aminopyrrolo[2,1-f][1,2,4]triazin-5-yl)piperidin-3-yl)-5-chloro-3-(2-(dimethylamino)ethoxy) thiophene-2-carboxamide], the IC50 was determined as 0.025 µM.
As to `Cc1ccc(C(=O)N[C@@H]2CCCN(c3c(Br)c(-c4ccc(S(C)(=O)=O)cc4)n4ncnc(N)c34)C2)s1` [Example 194, N-[(3R)-1-[4-amino-6-bromo-7-(4-methanesulfonylphenyl)pyrrolo[2,1-f][1,2,4]triazin-5-yl]piperidin-3-yl]-5-methylthiophene-2-carboxamide], the IC50 came to 0.188 µM.
With `Cc1ccc(C(=O)N[C@@H]2CCCN(c3c(Cl)c(-c4ccc(S(C)(=O)=O)cc4)n4ncnc(N)c34)C2)s1` [Example 195, N-[(3R)-1-[4-amino-6-chloro-7-(4-methanesulfonylphenyl)pyrrolo[2,1-f][1,2,4]triazin-5-yl]piperidin-3-yl]-5-methylthiophene-2-carboxamide], the IC50 worked out at 0.107 µM.
`CS(=O)(=O)c1ccc(-c2c(Cl)c(N3CCC[C@@H](NC(=O)c4ccncc4)C3)c3c(N)ncnn23)cc1` [Example 196, N-[(3R)-1-[4-amino-6-chloro-7-(4-methanesulfonylphenyl)pyrrolo[2,1-f][1,2,4]triazin-5-yl]piperidin-3-yl]pyridine-4-carboxamide]: the concentration for half-maximal inhibition (IC50) is 0.222 µM.

By IC50 is commonly meant the concentration needed to halve the response being measured.
